A word on the pKi: it is −log10 of the Ki, conventionally taken in molar units. Usually pKd stands for the negative decadic logarithm of the Kd, by convention in mol/L.

pKd, pKi: −log10 of the molar value. Calls of active or inactive are those of the source. No cut-off for these calls is given here.

In ChEMBL document CHEMBL3228011, “trans-5-(3,3,3-Trifluoro-1-propenyl-)-2'-deoxyuridylate: a mechanism-based inhibitor of thymidylate synthetase” (J Med Chem, 1979) one finds Ki, inhibition and Kd data, which are given here for one compound.

Test [1] has as its target T1, Thymidylate synthase (Homo sapiens, UniProt P04818). Kind of test: Competitive inhibition of thymidylate synthetase (unknown origin) in presence of 5,10-methylenetetrahydrofolate.
Target sequence in this assay (P04818 whole entry): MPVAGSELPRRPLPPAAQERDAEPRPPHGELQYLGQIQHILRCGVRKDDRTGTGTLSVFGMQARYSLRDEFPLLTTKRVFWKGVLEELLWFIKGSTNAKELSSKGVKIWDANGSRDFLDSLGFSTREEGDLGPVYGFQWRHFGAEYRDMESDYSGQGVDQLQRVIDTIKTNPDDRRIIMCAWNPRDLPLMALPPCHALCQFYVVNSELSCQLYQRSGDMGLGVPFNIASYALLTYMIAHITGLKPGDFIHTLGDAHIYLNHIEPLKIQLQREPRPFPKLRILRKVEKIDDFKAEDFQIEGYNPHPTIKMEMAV
Test [2] addresses T1, Thymidylate synthase. Kind of test: Inhibition of thymidylate synthetase (unknown origin) assessed as decrease of first order enzyme activity in absence of 5,10-methylenetetrahydrofolate and presence of dUMP.
Target sequence in this assay (P04818 2-313 limits assumed): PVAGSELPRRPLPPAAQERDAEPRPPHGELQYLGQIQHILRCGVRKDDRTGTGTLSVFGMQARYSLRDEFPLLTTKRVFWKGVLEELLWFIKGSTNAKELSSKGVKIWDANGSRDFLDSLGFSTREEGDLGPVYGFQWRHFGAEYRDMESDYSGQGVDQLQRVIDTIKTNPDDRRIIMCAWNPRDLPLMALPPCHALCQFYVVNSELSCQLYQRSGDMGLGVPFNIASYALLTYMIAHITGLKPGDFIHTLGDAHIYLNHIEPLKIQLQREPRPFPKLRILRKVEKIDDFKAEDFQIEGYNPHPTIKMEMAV
For test [3], the target named is T1, Thymidylate synthase. Kind of test: Inhibition of thymidylate synthetase (unknown origin) assessed as decrease of first order enzyme activity in absence of 5,10-methylenetetrahydrofolate.
Target sequence in this assay (P04818 2-313 limits assumed): as above
The target in test [4] is T1, Thymidylate synthase. Kind of test: Binding affinity to thymidylate synthetase (unknown origin).
Target sequence in this assay (P04818 whole entry): as the sequence (P04818 whole entry) above

For the compound `O=c1[nH]c(=O)n([C@H]2C[C@H](O)[C@@H](COP(=O)(O)O)O2)cc1/C=C/C(F)(F)F`, the pKi at Thymidylate synthase [1] was 5.07. On Thymidylate synthase [2], the inhibition entry is “inactive”. The inhibition entry on Thymidylate synthase [3] was “Active”. The same compound showed a negative logarithm of the Kd (pKd) on Thymidylate synthase [4] of 4.60.
